Measurements: patent publication US20240124408A1 (Sanofi, priority 2020, published 2024)
Where two headings read alike, the source gives them in different places.

What was measured:
[1] = target: T1, human TRPM8 (Homo sapiens, UniProt Q7Z2W7); assay: In vitro human TRPM8 fluorescence calcium flux assay (recombinant CHO cells, Fluo4-AM, FDSS6000); type: cell-based; conditions: recombinant CHO cells expressing human TRPM8; menthol-related EC50, normalized to 100 μM menthol
T1 construct: expressed in transfected cells; host or cells: CHO (p658 mammalian expression vector)
Outline: (§1)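 CHO cells stably expressing pig or human TRPM8, loaded with 2 μM Fluo4-AM in HBSS/20 mM HEPES/0.1% BSA/2.5 mM probenecid for 1 h at RT. Intracellular calcium read kinetically for 3 min after compound addition. EC50 from sixteen-point curves, normalized to 100 μM menthol maximal response.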

[2] = target: T2, pig TRPM8 (Sus scrofa, UniProt F1SM15); assay: In vitro pig TRPM8 fluorescence calcium flux assay (recombinant CHO cells, Fluo4-AM, FDSS6000); type: cell-based; conditions: recombinant CHO cells expressing pig TRPM8; menthol-related EC50, normalized to 100 μM menthol
T2 construct: expressed in transfected cells; host or cells: CHO (pcDNA5/FRT/TO vector; hygromycin B and blasticidin selection)
Outline: as §1

[3] = target: T1, human TRPM8; assay: In vitro human TRPM8 automated patch-clamp assay (SyncroPatch 384PE, CHO cells); type: cell-based; conditions: CHO cells expressing human TRPM8, 28° C.
Outline: (§2)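 Whole-cell automated patch clamp on engineered CHO lines at 28 °C, held at −60 mV, with −80 to +80 mV ramps every 5 s; one compound concentration per well. Peak current minus pre-addition baseline was normalised to no-compound control and Emax, and EC50 was fitted; 200 μM menthol wells served as control.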

[4] = system: Male castrated German Landrace pigs; assay: In vivo assay: enhancement of swallowing in anesthetized pigs (manometry with pressure probe in the mouth); conditions: Sus scrofa, anesthetized pig, dose per pig 10 mg, injected in 1 ml vehicle into the oral cavity
Experimental: For testing the efficacy of TRPM8 agonists for enhancing swallowing, experiment using the pig model can be conducted according to assay described below. The efficacy can be compared to a vehicle control.
Male castrated German Landrace pigs (weight range of 20 to 35 kg) were used. Anesthesia was induced by injecting 20 ml of a urethane solution (20 g/100 mL dissolved in saline) into an ear vein corresponding to a dose of around […]. Anesthesia was maintained by continuous infusion of 15-20 mL per hour of the urethane solution, which was infused into an epigastric vein, and additionally by infusion of Zoletil and Rompun (500 mg Zoletil is disssovled in 10 ml of Rompun 2%, then diluted 1:10 with saline and 3-5 mL per hour of this diluted solution. Bupivacain 0.5% JENAPHARM@ was injected for additional infiltration anesthesia. Anesthesia was monitored via pulsoximetry (ear) and regular reflex testing for pain. Body temperature was monitored and maintained by an infrared lamp.
Preparation of pigs: Swallowing responses were assessed by manometry with a pressure probe placed into the mouth of the pig. The pressure probe consisted of a plastic tube (diameter 3.3 mm) to which a small balloon was attached. The tube was advanced about 12-14 cm into the mouth related to the snout. The balloon was then inflated with air to yield a pressure of 20-30mbar (vehicle). Ideally a swallowing response with 1 ml of fluid raised this pressure by 20-50mbar which was then referred to as the swallowing pressure (the increment of this pre-set pressure in the inflated balloon after swallowing) to be further enhanced by an effective test drug.
The free end of the tube was connected to a differential pressure transducer MPX Type 399/2 (Hugo Sachs Elektronik-Harvard Apparatus) and a Hugo Sachs Plugsys-amplifier system. The biological signals were recorded by a Hugo Sachs Plugsys-amplifier system and continuously stored on a computer hard disk by an on line data acquisition and analysis system (Hem 4.2 Notocord Systems, Croissy-sur-Seine, France).
A second tube referred to as injection tube was placed dorsally to the manometer tube to enable the administration of the vehicle that induced the baseline swallowing activity, or of this same vehicle containing the test compound.
Induction and assessment of swallowing activity: 0.5h after anesthesia induction 1 ml of a fluid or the vehicle for the test drug was injected into the injection tube placed into the oral cavity. The number of swallows was counted and the highest-pressure increment was registered. Challenges with vehicle were repeated at intervals of 30 min until two consecutive vehicle challenges show an about equal swallowing response. The next challenge was the vehicle loaded with the test drug (otherwise same procedure). The efficacy of a compound to enhance swallowing as shown in Table 7 was expressed as the % increase in pressure and frequency of swallowing after administration of the compound compared to the pressure and frequency recorded for its vehicle administered just before.

[5] = target: T2, pig TRPM8; assay: In vitro pig TRPM8 automated patch-clamp assay (SyncroPatch 384PE, CHO cells); type: cell-based; conditions: CHO cells expressing pig TRPM8, 28° C.
Outline: as §2

T2 sequence (F1SM15 1-1104): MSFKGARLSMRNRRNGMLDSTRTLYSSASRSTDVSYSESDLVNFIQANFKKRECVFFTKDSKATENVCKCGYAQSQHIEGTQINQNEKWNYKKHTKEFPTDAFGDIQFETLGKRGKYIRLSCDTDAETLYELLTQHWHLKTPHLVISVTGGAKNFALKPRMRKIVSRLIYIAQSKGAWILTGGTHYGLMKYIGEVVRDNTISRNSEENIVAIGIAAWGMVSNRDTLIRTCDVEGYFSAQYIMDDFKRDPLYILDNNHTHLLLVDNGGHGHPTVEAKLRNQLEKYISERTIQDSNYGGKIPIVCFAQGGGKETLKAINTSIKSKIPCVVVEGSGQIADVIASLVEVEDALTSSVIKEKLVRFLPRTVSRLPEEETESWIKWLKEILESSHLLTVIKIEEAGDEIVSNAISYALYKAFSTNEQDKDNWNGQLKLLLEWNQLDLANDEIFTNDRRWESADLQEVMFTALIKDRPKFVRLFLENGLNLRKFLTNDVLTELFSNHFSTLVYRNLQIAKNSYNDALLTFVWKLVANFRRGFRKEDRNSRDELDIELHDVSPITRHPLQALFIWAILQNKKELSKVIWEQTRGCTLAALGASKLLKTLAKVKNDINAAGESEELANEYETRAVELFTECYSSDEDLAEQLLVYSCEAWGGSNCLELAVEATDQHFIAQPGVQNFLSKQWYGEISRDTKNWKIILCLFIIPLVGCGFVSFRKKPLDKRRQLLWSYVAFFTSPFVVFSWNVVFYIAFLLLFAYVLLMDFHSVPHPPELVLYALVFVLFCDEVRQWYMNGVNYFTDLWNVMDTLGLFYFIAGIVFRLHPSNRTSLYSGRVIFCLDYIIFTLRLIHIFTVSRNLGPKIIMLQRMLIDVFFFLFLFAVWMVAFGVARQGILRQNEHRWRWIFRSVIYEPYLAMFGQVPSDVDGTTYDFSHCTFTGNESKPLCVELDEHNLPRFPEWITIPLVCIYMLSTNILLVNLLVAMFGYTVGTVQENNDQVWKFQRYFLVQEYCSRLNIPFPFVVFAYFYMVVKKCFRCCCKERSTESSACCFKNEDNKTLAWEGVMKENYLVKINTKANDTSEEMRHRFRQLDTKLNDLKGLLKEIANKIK
T1 sequence (Q7Z2W7 whole entry): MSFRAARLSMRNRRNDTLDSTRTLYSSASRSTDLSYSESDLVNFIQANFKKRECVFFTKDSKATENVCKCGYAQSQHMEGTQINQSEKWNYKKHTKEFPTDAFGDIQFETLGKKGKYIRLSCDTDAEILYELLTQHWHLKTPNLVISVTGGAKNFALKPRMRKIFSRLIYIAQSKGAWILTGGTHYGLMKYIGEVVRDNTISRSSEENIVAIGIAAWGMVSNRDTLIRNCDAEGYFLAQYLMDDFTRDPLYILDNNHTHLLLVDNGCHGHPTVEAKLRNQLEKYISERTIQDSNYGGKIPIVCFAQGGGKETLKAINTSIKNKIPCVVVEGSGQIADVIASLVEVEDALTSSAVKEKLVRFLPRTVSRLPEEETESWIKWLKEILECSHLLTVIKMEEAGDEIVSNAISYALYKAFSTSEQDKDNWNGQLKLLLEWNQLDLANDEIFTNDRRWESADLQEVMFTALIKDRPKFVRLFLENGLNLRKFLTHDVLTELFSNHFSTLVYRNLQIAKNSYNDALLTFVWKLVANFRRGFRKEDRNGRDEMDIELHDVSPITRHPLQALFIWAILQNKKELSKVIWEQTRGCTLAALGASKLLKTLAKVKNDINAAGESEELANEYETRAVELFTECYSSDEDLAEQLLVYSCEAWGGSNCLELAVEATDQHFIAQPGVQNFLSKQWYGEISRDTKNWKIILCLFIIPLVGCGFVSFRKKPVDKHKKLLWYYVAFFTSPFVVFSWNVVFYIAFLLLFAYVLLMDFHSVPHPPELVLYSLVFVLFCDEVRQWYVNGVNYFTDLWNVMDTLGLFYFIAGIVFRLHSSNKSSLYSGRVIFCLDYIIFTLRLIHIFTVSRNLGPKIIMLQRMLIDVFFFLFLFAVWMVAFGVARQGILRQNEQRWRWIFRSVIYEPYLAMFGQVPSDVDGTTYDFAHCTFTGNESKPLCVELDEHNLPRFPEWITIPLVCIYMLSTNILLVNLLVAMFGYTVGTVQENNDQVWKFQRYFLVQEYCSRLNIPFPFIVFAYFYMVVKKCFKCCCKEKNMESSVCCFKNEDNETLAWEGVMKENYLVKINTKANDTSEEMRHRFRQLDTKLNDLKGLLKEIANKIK

EC50 [1]: 27.7 nM
EC50 [2]: 25.2 nM
EC50 [3]: 1500 nM
EC50 [5]: 4.25 µM
SMILES: CC(C)[C@@H]1CC[C@@H](C)C[C@@]1(O)C(=O)NCCc1ccccc1OCC(N)=O [Example 81, (1S,2S,5R)—N-(2-(2-amino-2-oxoethoxy)phenethyl)-1-hydroxy-2-isopropyl-5-methyl cyclohexane-1-carboxamide]
change in vivo at 10 mg ([4]; frequency of swallowing compared with vehicle administered just before, read-out: % increase frequence vs vehicle): 247%
change in vivo at 10 mg ([4]; swallowing pressure compared with vehicle administered just before, read-out: % increase pressure vs vehicle): 315%
